Tests used:
panel of 4 panelists = assay: Organoleptic test of intrinsic sweet taste against sucrose; type: in vivo; settings: 0.5 mg/ml (500 ppm) in non-carbonated mineral water; for sweetness compared with a solution of sucrose 20 mg/ml (control solution): control sucrose 20 mg/ml
Protocol: Organoleptic Test of the Compounds of Formula (I) Against Sucrose
Intrinsic sweet taste: The isolated pure compounds were dissolved in non-carbonated mineral water (“Fonsana Quelle”) in a concentration of 0.5 mg/ml (500 ppm). The sweet taste of each sample was compared by a panel of 4 panelists with a solution of sucrose in a concentration of 20 mg/ml.

[1] = system: panel of 3 sweet sensitive panelists; assay: Organoleptic test of sweetness enhancement in combination with sucrose; type: in vivo; settings: concentration stated to be near the sweetness detection threshold
Protocol: Organoleptic Test of the Compounds of Formula (I) in Combination with Known Sweeteners
Combination of (I) with Sucrose.
The sweetness enhancement properties of compound Aa and Bb was determined using a sample having a concentration of 100 μg/ml compound Aa and Bb, which is near the sweetness detection threshold, in 7% sucrose solution. The compound Aa and Bb sample was directly compared to samples of 7%, 8% or 9% sucrose, and panelists were instructed to compare the sweetness intensity of the samples. The comparisons were carried out by a panel of 3 sweet sensitive panelists. All samples were presented to panelists in 5 ml aliquots at ambient temperature. Panelists compared the compound Aa and Bb sample to each of the sucrose samples.

Row | SMILES | off-taste (panel of 4 panelists) | sweetness compared with a solution of sucrose 20 mg/ml (control solution) (panel of 4 panelists) | sweetness detection threshold [1]
1 | COc1cc(/C=C/c2cc(O)cc(O)c2)ccc1O[C@@H]1O[C@H](CO)[C@@H](O)[C@H](O)[C@H]1O [Compound Aa, Gnetifolin E] | no significant off-taste | comparable with the control solution | ~100 µg/mL
2 | OC[C@H]1O[C@@H](Oc2ccc(/C=C/c3cc(O)cc(O)c3)cc2O)[C@H](O)[C@@H](O)[C@@H]1O [Compound Bb, Piceatannol 4′-O-β-D-glucopyranoside] | no significant off-taste | comparable with the control solution | ~100 µg/mL
